For the assay, the system named is GCP purified from post-natal day 4 rat cerebellum. Kind of assay: Ki-67 proliferation of electroporated GCP overexpressing BOC, with Shh and Smo inhibitor. Type of assay: cell-based. Particulars: 10 nM Shh plus SANT-1. The method, then:
GCP purified from post-natal day 4 rat cerebellum were co-electroporated with either a combination of BOC with a red fluorescence protein expressing plasmids (BOC) or with a control empty plasmid with a red fluorescence protein expressing plasmid (control). Proliferation was evaluated by measuring the percentage of Ki-67 positive cells among electroporated cells in absence or in presence of sonic hedgehog (Shh) and also in presence of Shh in combination with an inhibitor of Smo (SANT-1);
GCP purified from post-natal day 4 rat cerebellum were co-electroporated with either a combination of a plasmid containing a nucleic acid encoding murine BOC with a red fluorescent protein (RFP)-expressing plasmids (BOC) (both genes under the control of the chicken beta-actin promoter) or with a control empty plasmid with a red fluorescent protein-expressing plasmid (control). Proliferation was evaluated by measuring the percentage of Ki-67-positive cells among electroporated cells in the presence or absence of Shh. In addition, the role of the Hh signalling protein Smoothened (Smo) was tested using an inhibitor of Smo (SANT-1) in combination with Shh.

Experimental findings from patent US8241846B1, “Hedgehog pathway modulation and uses thereof for treating, preventing and/or diagnosing cancer” (Institut de Recherches Cliniques de Montreal, priority 2008, dated 2012) are described below.

Turning to `Cc1nn(-c2ccccc2)c(C)c1/C=N/N1CCN(Cc2ccccc2)CC1` [SANT-1], the “effect on BOC-mediated increase in percentage of Ki-67-positive cells” value was “prevents this increase”.
